These are literature values, as cited in US20170333424A1, “Amorphous Vortioxetine Hydrobromide” (Hexal AKTIENGESELLSCHAFT, priority 2014, published 2017).

Where a name gives a salt, the structure may show the parent alone.

The conditions of the series: class II means high permeability, but low solubility.

Take `Cc1ccc(Sc2ccccc2N2CCNCC2)c(C)c1` [vortioxetine hydrobromide]: the BCS class entry was “class II”.
